One test concerns excisional skin wound. Put plainly: Full-thickness excisional skin wound healing model, kinetic analysis of wound area. In kind it is in vivo, mice (C57BL/6J). To be noted: for DCA-mediated delayed wound closure (measurement of wound area) compared to control mice: single administration 300 mg/Kg i.p. 1 h prior skin wounding. How it is done:
FIG. 1: In vivo relevance of the cell metabolic adaptation in skin repair. The excisional skin wound healing model was used. Left, kinetic analysis of skin wound areas was performed. Values represent mean±SD. Right, representative macroscopic images of untreated and DCA treated mice are shown at the indicated days after wounding. Bar, 5 mm. *P<0.05, **P<0.01; Student's t-test. Untreated, n=8; DCA, n=9. One experiment shown out of two performed with similar number of animals.
In order to determine the relevance of wound acidification in healing outcome in vivo, the pyruvate dehydrogenase kinase (Pdk) inhibitor dichloroacetate (DCA) was used in a model of full-thickness excisional skin wounding to promote glucose oxidation over anaerobic glycolysis, thus interfering with local acidosis.
Excisional model of skin injury. A full-thickness excisional skin injury model was performed as previously described^7. Mice were anesthetized with 10 μL/g of weight of Ketamine (final concentration 10 mg/mL) and Xylazine (final concentration 1 mg/mL) in saline buffer. As described^7, a full-thickness wound (from skin to underlying panniculus carnosus) was generated with disposable biopsy punch (8-mm diameter). Gentamicin was immediately applied to limit gross bacterial infections, not evident from histological examination carried out at different time points of the experiment. Mice were optionally treated with a solution of sodium dichloroacetate (DCA; Sigma-Aldrich Corp.), which was injected i.p. in 10-12 weeks-old C57BL/6J with a dosage of 300 mg/Kg 1 h before skin wounding. PBS or saline were used in control mice. As previously described^7, the skin wounds of each mouse were digitally photographed and measured during wound healing by tracing them on a transparency, calculated with the ImageJ-Fiji software, and the variations in time expressed as a percentage of the initial wound area.

A further test relates to NADH/NAD+ ratio. Put plainly: FLIM phasor quantification of NADH/NAD+ ratio (anaerobic glycolysis) in incisional skin wound. In kind it is in vivo, mice (C57Bl6/J). To be noted: for NADH/NAD+ ratio in perilesional area vs untreated condition (in words): comparison between first 10 values of each condition, t-test; for line slope of linear regression of NADH/NAD+ ratio vs untreated (in words): deviation between slopes test; for slope of gradient of NADH/NAD+ ratio vs distance from wound: untreated −0.267±0.06. From the text: FIG. 2: Measurement of anaerobic glycolysis in wound by FLIM quantification of NADH/NAD^+ ratio. Phasor analysis of free and bound NADH fluorescence allows a quantification of their relative increase. A, map of a gradient of NADH/NAD+ ratio (grey). Wound margin is highlighted with a dashed line. All scale bars 100 μm. B, phasor analysis of FLIM NADH fluorescence. NADH region of the phasor plot was divided in five sub-regions along the major axis and each is associated with an intensity value (0-20, 20-40, 40-60, 60-80, 80-100). […] D, NADH/NAD^+ ratio percentage as a function of distance from wound (grey). […] NADH/NAD^+ ratio is lower in perilesional area of DCA-treated mice (grey line vs grey line of D, comparison between first 10 values of each condition, t-test ****, P<0.0001). n=3 mice.
FIG. 8. Effect of the mitochondrial respiratory chain in the measurement of NADH/NAD^+ ratio as expression of glycolysis in wound. A, NADH/NAD^+ ratio percentage as a function of distance from wound. […] NADH/NAD^+ ratio is lower in perilesional area of Antimycin A-treated mice (bottom graph vs grey line for untreated condition, comparison between first 10 values of each condition, t-test, P<0.0001). […] B, map of a gradient of NADH/NAD+ ratio (grey) in wound in untreated (n=4) or mice treated with Rotenone (n=3) and Antimycin A (n=2). Wound margin is highlighted with a dashed line. All scale bars 20 μm.
On day 1 after wounding, FLIM images were acquired with 2PM and stitched to produce lifetime XYZ mosaics (600-1000 μm wide and 200 μm deep) (FIG. 2a). Common FLIM imaging has slow acquisition times, which are required to collect enough photons to reconstruct a time decay curve. This was compensated by the use of a time correlated single-photon counting (TCSPC) 16-channel parallel detector, with an average counting speed of 80 MHz which allowed faster 3D scanning of the mosaic over lesion area^31. The ratio of free to protein-bound NADH has been known to be associated with the ratio of NAD^+ to NADH in small intestine epithelial cells^32 and breast cancer cells^33. Protein-bound NADH has a complex multi-exponential lifetime decay that has been related to its binding to different enzymes, such as malate dehydrogenase and lactate dehydrogenase^34. Standard approaches revolved on a characterization by fitting with a two-exponential curve, corresponding to a short or long lifetime range. This approximation is however misleading because free and protein-bound NADH have common exponential components and the NADH binding sites with different enzymes cannot be considered^32, 35. In fact, in our case this approach was ineffective to discriminate between untreated and DCA-treated mice (FIG. 7). […] Instead, phasor analysis^32, 36 was used. In accordance with a previous report^37, we designed an analysis that first divides the phasor cloud into five regions (FIG. 2b) corresponding to a gradient of prevailing anaerobic glycolysis in regions of lower lifetimes towards a region where more oxidative phosphorylation occurs. Pixels attributed to each region were then associated to discrete values of decreasing intensity, and therefore quantification of pixel intensity on the resulting image was proportional to the relative increase in anaerobic glycolysis. By linearizing images, we obtained a spatial distribution of anaerobic glycolysis from wound profile (FIG. 2c). At lesion margin, gradient of NADH/NAD^+ ratio corresponded to 29.1±0.4% and decreased until to 2.6±0.1% distance (range of 200-500 μm) from the wound. The decrease was evaluated with a linear regression fitting as the simplest fitting model for testing the overall deviation from zero slope curve (linear regression fitting with a slope of −0.050±0.0016 μm^−1; black line with 95% CL bands; deviation from zero slope test, P<0.0001) (FIG. 2d). An increased anaerobic glycolysis around wound margins was also evident in XZ maximum intensity projection images of the maps (FIG. 2e). […]

Consider `O=C([O-])C(Cl)Cl.[Na+]` [DCA, sodium dichloroacetate], for which the “DCA-mediated delayed wound closure (measurement of wound area) compared to control mice” value was −28.3% in the test with excisional skin wound (day 1, P=0.005); −27.1% with excisional skin wound (day 2, P=0.004); −22.5% in the test on excisional skin wound (day 3, P=0.05); −24.5% in the test with excisional skin wound (day 4, P=0.02); −30.5% in the test with excisional skin wound (day 5, P=0.002); −20.4% in the test with excisional skin wound (day 6, P=0.01). In addition, the “DCA-mediated delayed wound closure (measurement of wound area) compared to control mice” value in the test on excisional skin wound (day 7, P=0.03) is −17.4%. Besides, in the test with excisional skin wound (single administration 300 mg/Kg 1 h prior skin wounding, n=9 vs n=8), the “wound closure curve compared to mice treated with vehicle alone” value is listed as “significantly delayed curve”. Moreover, the “anaerobic glycolysis (NADH/NAD+ ratio) at perilesional area” value in the test with NADH/NAD+ ratio (DCA 300 mg/Kg i.p., 1 h, mean of the first 10 values, untreated 29.1±0.4%, P<0.0001) came to 8.0±0.2%. Besides, the “gradient steepness, slope of linear regression of NADH/NAD+ ratio vs distance from wound” value with NADH/NAD+ ratio (DCA 300 mg/Kg i.p., 1 h, untreated −0.050±0.0016, P<0.0001) was −0.035±0.0023 μm^−1. Further, in the test with NADH/NAD+ ratio (Student t-test, P>0.05), the “NADH lifetime decays in perilesional regions fitted with a two-exponential decay function, treated vs untreated” value is recorded as “could not show significant differences”. Further, in the test on NADH/NAD+ ratio, the “NADH/NAD+ ratio in perilesional area vs untreated condition (in words)” value (“NADH/NAD+ ratio in perilesional area” for short) is on record as “lower”. Further, the “line slope of linear regression of NADH/NAD+ ratio vs untreated (in words)” value with NADH/NAD+ ratio (P<0.0001) was “reduction in line slope”.
Antimycin A: the “slope of gradient of NADH/NAD+ ratio vs distance from wound” value with NADH/NAD+ ratio (Antimycin A 5 μM i.d. 1 h before imaging, P<0.0001) was −0.046±0.08 μm^−1. In addition, the “glycolysis at wound margin (NADH/NAD+ ratio)” value in the test on NADH/NAD+ ratio (Antimycin A 5 μM i.d., untreated 20.28±0.41%, P<0.0001) is listed as 8.37±0.49%. Also, the “NADH/NAD+ ratio in perilesional area” value with NADH/NAD+ ratio is on record as “lower”. For the same compound, in the test with NADH/NAD+ ratio (P<0.0001), the “line slope of linear regression of NADH/NAD+ ratio vs untreated (in words)” value is on record as “reduction in line slope”.
For `C=C(C)[C@H]1Cc2c(ccc3c2O[C@@H]2COc4cc(OC)c(OC)cc4[C@@H]2C3=O)O1` [Rotenone], in the test on NADH/NAD+ ratio (Rotenone 20 μM local), the “glycolysis in regions distant from the wound” value was “increased glycolysis in regions distant from the wound”. In the test with NADH/NAD+ ratio (Rotenone 20 μM local (i.d.) 1 h before imaging, P<0.0001), the “slope of gradient of NADH/NAD+ ratio vs distance from wound” value was −0.113±0.002 μm^−1. In addition, the “fraction of anaerobic glycolysis at wound margin” value in the test on NADH/NAD+ ratio (Rotenone 20 μM local (i.d.), untreated 20.28±0.41%, P>0.05) was 20.08±0.21%. In the test with NADH/NAD+ ratio, the “NADH/NAD+ ratio in perilesional area” value is “no significant decrease in value”. Moreover, the “line slope of linear regression of NADH/NAD+ ratio vs untreated (in words)” value in the test with NADH/NAD+ ratio (P<0.0001) is “significant reduction in line slope”.

(Values after US20230134376A1, “METHOD FOR QUANTITATIVE IMAGING OF THE METABOLIC STATUS OF A LESION” (priority 2020, published 2023).)
